# Assay results: patent US10927136B2, “Phosphorus prodrugs of pyrazolo-substituted pyrimidine sGC stimulators” (Cyclerion Therapeutics, Inc., priority 2016, dated 2021)
# pEC50: −log10 of the molar value. Read-outs that look alike come from different tables or passages of the source.
# Experiments:
# [1] = molecular target: T1, soluble guanylate cyclase (sGC) (Homo sapiens, UniProt Q02108+Q02153); test: sGC-HEK-cGMP assay with LC/MS detection; format: cell-based; conditions: for pEC50: HEK293 cells, 10 μM DETA-NONOate, cGMP by LC/MS, read-out: Absolute EC50; for sGC agonism as compared to parent drug: HEK assay with LC/MS detection
# T1 construct: endogenously expressing soluble guanylate cyclase (sGC); endogenous in cells; host or cells: HEK293
# T1 sequence (Q02153 1-619): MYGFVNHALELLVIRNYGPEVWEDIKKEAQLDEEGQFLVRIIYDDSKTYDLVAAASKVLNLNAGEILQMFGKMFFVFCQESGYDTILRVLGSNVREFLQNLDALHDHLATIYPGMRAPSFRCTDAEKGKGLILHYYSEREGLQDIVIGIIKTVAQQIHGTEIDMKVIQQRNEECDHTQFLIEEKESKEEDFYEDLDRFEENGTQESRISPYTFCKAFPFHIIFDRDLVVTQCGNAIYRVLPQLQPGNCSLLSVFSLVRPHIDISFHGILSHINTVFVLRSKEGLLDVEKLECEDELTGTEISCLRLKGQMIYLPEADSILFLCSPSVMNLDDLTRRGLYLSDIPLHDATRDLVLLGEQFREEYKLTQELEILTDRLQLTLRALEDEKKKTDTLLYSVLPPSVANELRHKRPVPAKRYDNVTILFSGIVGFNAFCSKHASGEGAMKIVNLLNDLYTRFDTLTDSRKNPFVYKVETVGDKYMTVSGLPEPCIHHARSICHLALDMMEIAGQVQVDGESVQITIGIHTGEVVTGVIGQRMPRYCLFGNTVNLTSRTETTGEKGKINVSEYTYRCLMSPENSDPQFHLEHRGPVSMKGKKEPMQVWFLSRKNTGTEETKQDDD
# T1 sequence (Q02108 1-690): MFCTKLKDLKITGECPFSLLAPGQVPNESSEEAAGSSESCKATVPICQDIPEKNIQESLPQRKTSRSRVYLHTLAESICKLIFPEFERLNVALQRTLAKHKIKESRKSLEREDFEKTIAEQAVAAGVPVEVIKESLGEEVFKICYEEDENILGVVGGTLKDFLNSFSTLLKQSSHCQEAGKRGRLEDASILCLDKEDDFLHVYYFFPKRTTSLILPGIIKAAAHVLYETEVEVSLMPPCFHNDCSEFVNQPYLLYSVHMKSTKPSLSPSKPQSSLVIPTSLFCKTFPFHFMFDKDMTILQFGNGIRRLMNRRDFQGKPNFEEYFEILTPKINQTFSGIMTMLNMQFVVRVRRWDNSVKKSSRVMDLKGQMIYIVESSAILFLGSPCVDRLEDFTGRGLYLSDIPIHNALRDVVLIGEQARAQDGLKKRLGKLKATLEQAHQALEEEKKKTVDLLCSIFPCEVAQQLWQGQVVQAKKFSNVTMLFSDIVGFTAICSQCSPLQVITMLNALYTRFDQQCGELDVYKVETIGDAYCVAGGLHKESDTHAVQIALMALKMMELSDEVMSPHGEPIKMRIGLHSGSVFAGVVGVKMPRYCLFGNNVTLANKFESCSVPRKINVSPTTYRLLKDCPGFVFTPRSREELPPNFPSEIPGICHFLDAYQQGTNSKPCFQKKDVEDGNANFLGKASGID
# Protocol: Human embryonic kidney cells (HEK293), endogenously expressing soluble guanylate cyclase (sGC), were used to evaluate the activity of test compounds. Compounds stimulating the sGC enzyme should cause an increase in the intracellular concentration of cGMP. HEK 293 cells were seeded in Dulbecco's Modification of Eagle's Medium supplemented with fetal bovine serum (10% final) and penicillin (100 U/mL)/streptomycin (100 μg/mL) in a 50 μL volume at a density of 1.5×10^4 cells/well in a poly-D-lysine coated 384 well flat bottom plate. Cells were incubated overnight at 37° C. in a humidified chamber with 5% CO2. Medium was aspirated and cells were washed with 1×Hank's Buffered Saline Salt Solution (50 μL). Cells were then incubated for 15 minutes at 37° C. with 50 μL of a 0.5 mM 3-isobutyl-1-methylxanthine (IBMX) solution. The test article and Diethylenetriamine NONOate (DETA-NONOate) solutions (x μM concentration for test article solution and 10 μM concentration for DETA-NONOate solution; wherein x is one of the following concentrations)
# were then added to the assay mixture and the resulting mixture was incubated at 37° C. for 20 minutes. After the 20 minute incubation, the assay mixture was aspirated and 10% acetic acid containing 150 ng/mL+3-cGMP (internal standard for LCMS) (50 μL) was added to the cells. The plate was incubated at 4° C. for 30 minutes in the acetic acid solution to stop the reaction and lyse the cells. The plates were then centrifuged at 1,000 g for 3 minutes at 4° C. and the supernatant transferred to a clean reaction plate for LCMS analysis.
# cGMP concentrations were determined from each sample using the LCMS conditions below (Table 2) and calculated standard curve. The standard curve was prepared in 10% acetic acid with 150 ng/mL+3cGMP (isotopically labelled cGMP with a weight 3 units higher than wild type) with the following final concentrations of cGMP in ng/mL: 1, 5, 10, 50, 100, 250, 500, 1000, 2000.
# Data were normalized to a high control using the following equation: 100*(Sample−Low Control)/(High Control−Low Control), where the low control is the average of 16 samples treated with 1% DMSO, and the high control is the average of 16 samples treated with 30 μM of Compound Y depicted below. Data were fit using a 4-parameter fit (log(agonist) vs. response—variable slope) using GraphPad Prism Software v.5. n=2 for all compounds. The Absolute EC50 was interpolated from the curve fit and is defined as the concentration at which a given compound elicits 50% of the high control response. Compounds failing to elicit a minimum response of 50% are reported as >30 μM. For compounds run in duplicate or n higher than 2, the result herein given is the geometric mean of the several results obtained.
# sGC enzyme activity values in HEK cells, expressed as Absolute EC50 which is defined as the concentration at which a given compound elicits 50% of the high control response obtained with Compound Y, after normalization.
# [2] = Thermodynamic solubility measurements; format: physicochemical; conditions: aqueous buffer, pH 7, aqueous buffer, thermodynamic from solid
# Protocol: Approximately 1 mg of test compound was weighed into 1.5 mL Eppendorf tubes and 1.5 mL of aqueous buffer of a given pH was added. The samples were vortexed and placed on a shaker at 150 RPM for 2-5 days. The samples were harvested and then centrifuged at 12 K RPM for 20 minutes. The supernatant was diluted twice with Acetonitrile (ACN) and analyzed by UPLC. To dilute the samples, 200 uL of supernatant was taken and discarded. Then, 400 uL of supernatant (with 200 uL intervals) was taken and added to 400 uL of acetonitrile (with 200 uL intervals).
# UPLC conditions: Mobile Phase A: 0.1% TFA in Water; Mobile Phase B: 0.1% TFA in Acetonitrile; Column: Acquity BEH C18, 1.7 um, 2.1×50 mm; Injection Volume: 2-3 uL; Autosampler Temperature: Ambient; Column Temperature: 25° C.; Run Time: 10 minutes; Flow Rate: 0.45 mlJmin; Collected Wavelengths: 220 nm, 245 nm, 254 nm, 280 nm, PDA Spectrum (190-400 nm); Wavelength Used for Analysis: 254 nm
pEC50 ([1]; Parent compound column),solubility [2] [µg/mL],pEC50 ([1]; prodrug),Structure (SMILES),sGC agonism as compared to parent drug [1]
6.66,2 to 3,,OC(CNc1nc(-c2cc(-c3ccon3)n(Cc3ccccc3F)n2)ncc1F)(C(F)(F)F)C(F)(F)F [Intermediate 3],
,71,4.60,O=P(O)(O)OCOC(CNc1nc(-c2cc(-c3ccon3)n(Cc3ccccc3F)n2)ncc1F)(C(F)(F)F)C(F)(F)F [Compound I-4],did not exhibit a high degree of sGC agonism
,66 to 1000,4.89,O=P(O)(O)OC(CNc1nc(-c2cc(-c3ccon3)n(Cc3ccccc3F)n2)ncc1F)(C(F)(F)F)C(F)(F)F [Compound I-1],did not exhibit a high degree of sGC agonism
